One experiment concerns the target BTK kinase (Homo sapiens, UniProt Q06187). The experiment is described as follows: BTK kinase inhibitory activity, mobility shift method. The class given is biochemical. The conditions noted are these: compound co-incubated with the enzyme for 30 minutes. The protocol: The BTK kinase inhibitory activity of the compound was determined using a mobility shift method with the reaction system (kinase solution, ATP, kinase substrate2). The compound was co-incubated with the enzyme for 30 minutes, and then the conversion rate was read using the Caliper EZ reader. The compound inhibition rate was determined using the calculation formula and the data was fitted using Graphpad to derive the IC50 value for the compounds of this application.

Experiment [1] deals with tumour cells (A20 5E6 cells). The experiment is described as follows: Inhibitory effect on tumour cell proliferation (CCK8). The format is cell-based. As to conditions: CCK8 absorbance, read-out: Inhibitory effect of the compound on cell proliferation IC50. As to the method: This experiment was to determine the effect of the compound on cell proliferation.
To determine the inhibitory effect of the compound on the proliferation of tumour cells, tumour cells (A20 5E6 cells) were cultured to a certain amount and seeded into 96-well plates. […] The absorbance value was measured after the addition of CCK8 and 2 h incubation to determine the inhibitory effect of the compound on cell proliferation. The IC50 value of the compound was obtained by data fitted with Graphpad.

Each structure is given as a SMILES string.

BTK kinase, sequence (Q06187 whole entry): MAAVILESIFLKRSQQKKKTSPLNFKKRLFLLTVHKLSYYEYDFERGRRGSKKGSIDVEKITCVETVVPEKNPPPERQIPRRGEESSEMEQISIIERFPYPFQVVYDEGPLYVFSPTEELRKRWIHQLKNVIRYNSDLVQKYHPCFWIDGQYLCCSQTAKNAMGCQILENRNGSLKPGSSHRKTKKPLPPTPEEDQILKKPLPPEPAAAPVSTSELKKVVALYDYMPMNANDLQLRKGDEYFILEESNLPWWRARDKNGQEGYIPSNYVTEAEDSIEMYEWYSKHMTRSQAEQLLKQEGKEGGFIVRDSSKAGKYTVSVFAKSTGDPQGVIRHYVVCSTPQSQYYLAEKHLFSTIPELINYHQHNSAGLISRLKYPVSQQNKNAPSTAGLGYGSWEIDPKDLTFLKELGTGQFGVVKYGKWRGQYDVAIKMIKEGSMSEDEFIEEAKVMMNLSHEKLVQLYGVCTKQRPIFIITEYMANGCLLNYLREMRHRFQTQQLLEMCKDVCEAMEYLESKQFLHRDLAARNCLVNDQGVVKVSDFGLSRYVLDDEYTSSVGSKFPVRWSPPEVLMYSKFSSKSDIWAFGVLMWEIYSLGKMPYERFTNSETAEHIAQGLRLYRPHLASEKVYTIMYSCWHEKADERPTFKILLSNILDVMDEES

As for `C[C@H]1CN(C2COC2)CCN1c1ccc(Nc2cc(-c3ccc(C#N)c(N4CCn5c(cc6c5CC(C)(C)C6)C4=O)c3CO)cn(C)c2=O)nc1` [Example H06, (S)-2-(7,7-dimethyl-1-oxo-1,3,4,6,7,8-hexahydro-2H-cyclopenta [4,5]pyrrolo[1,2-a]pyrazin-2-yl)-3-(hydroxymethyl)-4-(1-methyl-5-((5-(2-methyl-4-(oxetan-3-yl)piperazin-1-yl)pyridin-2-yl)amino)-6-oxo-1,6-dihydropyridin-3-yl) benzonitrile], the IC50 on BTK kinase amounted to 0.41 nM; in experiment [1] it was 31 nM.
Taken in the same sequence, the figures for `C[C@H]1CN(C2COC2)CCN1c1ccc(Nc2cc(-c3c(C#N)ccc(N4CCn5c(cc6c5CC(C)(C)C6)C4=O)c3CO)cn(C)c2=O)nc1` [Example H07, (S)-4-(7,7-dimethyl-1-oxo-1,3,4,6,7,8-hexahydro-2H-cyclopenta [4,5]pyrrolo[1,2-a]pyrazin-2-yl)-3-(hydroxymethyl)-2-(1-methyl-5-((5-(2-methyl-4-(oxetan-3-yl)piperazin-1-yl)pyridin-2-yl)amino)-6-oxo-1,6-dihydropyridin-3-yl) benzonitrile] were 0.38 nM and 40 nM.
As to `CN1CCN(c2ccc(Nc3cc(-c4ccnc(N5CCn6c(cc7c6CC(C)(C)C7)C5=O)c4CO)nc4ccoc34)nc2)CC1` [Example H08, 2-(3-(hydroxymethyl)-4-(7-((5-(4-methylpiperazin-1-yl)pyridin-2-yl)amino)furo[3,2-b]pyridin-5-yl)pyridin-2-yl)-7,7-dimethyl-3,4,7,8-tetrahydro-2H-cyclopenta[4,5]pyrrolo[1,2-a]pyrazin-1(6H)-one], the results for the IC50 (on BTK kinase; in experiment [1]) were 0.23 nM and 29 nM, respectively.
The corresponding values for `CC1(C)Cc2cc3n(c2C1)CCN(c1nccc(-c2cc(Nc4ccc(N5CCN(C6COC6)CC5)cn4)c4occc4n2)c1CO)C3=O` [Example H09, 2-(3-(hydroxymethyl)-4-(7-((5-(4-(oxetan-3-yl)piperazin-1-yl)pyridin-2-yl)amino)furo[3,2-b]pyridin-5-yl)pyridin-2-yl)-7,7-dimethyl-3,4,7,8-tetrahydro-2H-cyclopenta[4,5]pyrrolo[1,2-a]pyrazin-1(6H)-one] are 0.71 nM and 31 nM.
As to `Cn1cc(-c2ccnc(N3CCn4c5c(c(F)c4C3=O)CC(C)(C)C5)c2CO)cc(Nc2ccc(N3CCN(C4COC4)CC3)cn2)c1=O` [Example H10, 9-fluoro-2-(3′-(hydroxymethyl)-1-methyl-5-((5-(4-(oxetan-3-yl)piperazin-1-yl)pyridin-2-yl)amino)-6-oxo-1,6-dihydro-[3,4′-bipyridin]-2′-yl)-7,7-dimethyl-3,4,7,8-tetrahydro-2H-cyclopenta[4,5]pyrrolo[1,2-a]pyrazin-1(6H)-one], the results for the IC50 (on BTK kinase; in experiment [1]) were 0.21 nM and 21 nM, respectively.
Taken in the same sequence, the figures for `Cn1cc(-c2ccnc(N3CCn4c5c(c(F)c4C3=O)CC(C)(C)C5)c2CO)cc(Nc2ccc(N3CCC4(CC3)COC4)cn2)c1=O` [Example H11, 2-(5-((5-(2-oxa-7-azaspiro[3.5]nonan-7-yl)pyridin-2-yl)amino)-3′-(hydroxymethyl)-1-methyl-6-oxo-1,6-dihydro-[3,4′-bipyridin]-2′-yl)-9-fluoro-7,7-dimethyl-3,4,7,8-tetrahydro-2H-cyclopenta[4,5]pyrrolo[1,2-a]pyrazin-1(6H)-one] were 0.26 nM and 13 nM.
Taken in the same sequence, the figures for `CN1CC2(CCN(c3ccc(Nc4cc(-c5ccnc(N6CCn7c8c(c(F)c7C6=O)CC(C)(C)C8)c5CO)cn(C)c4=O)nc3)CC2)C1` [Example H12, 9-fluoro-2-(3′-(hydroxymethyl)-1-methyl-5-((5-(2-methyl-2,7-diazaspiro[3.5]nonan-7-yl)pyridin-2-yl)amino)-6-oxo-1,6-dihydro-[3,4′-bipyridin]-2′-yl)-7,7-dimethyl-3,4,7,8-tetrahydro-2H-cyclopenta[4,5]pyrrolo[1,2-a]pyrazin-1(6H)-one] were 0.49 nM and 13 nM.
On to `Cn1cc(-c2ccnc(N3CCn4c5c(c(F)c4C3=O)CC(C)(C)C5)c2CO)cc(Nc2ccc(N3CCC4(CC3)CC(O)C4)cn2)c1=O` [Example H13, 9-fluoro-2-(5-((5-(2-hydroxy-7-azaspiro[3.5]nonan-7-yl)pyridin-2-yl)amino)-3′-(hydroxymethyl)-1-methyl-6-oxo-1,6-dihydro-[3,4′-bipyridin]-2′-yl)-7,7-dimethyl-3,4,7,8-tetrahydro-2H-cyclopenta[4,5]pyrrolo[1,2-a]pyrazin-1(6H)-one], for which the IC50 on BTK kinase was determined as 0.18 nM; in experiment [1], 19 nM.
As for `CN1CCN(c2ccc(Nc3cc(-c4ccnc(N5CCn6c7c(c(F)c6C5=O)CC(C)(C)C7)c4CO)cn(C)c3=O)nc2)CC1` [Example H14, 9-fluoro-2-(3′-(hydroxymethyl)-1-methyl-5-((5-(4-methylpiperazin-1-yl)pyridin-2-yl)amino)-6-oxo-1,6-dihydro-[3,4′-bipyridin]-2′-yl)-7,7-dimethyl-3,4,7,8-tetrahydro-2H-cyclopenta[4,5]pyrrolo[1,2-a]pyrazin-1(6H)-one], the IC50 amounted to 0.27 nM on BTK kinase and 47 nM in experiment [1].
As for `Cn1cc(-c2ccnc(N3CCn4c5c(c(F)c4C3=O)CC(C)(C)C5)c2CO)cc(Nc2ccc(N3CCN(C4COC4)CC3)cc2)c1=O` [Example H15, 9-fluoro-2-(3′-(hydroxymethyl)-1-methyl-5-((4-(4-(oxetan-3-yl)piperazin-1-yl)phenyl)amino)-6-oxo-1,6-dihydro-[3,4′-bipyridin]-2′-yl)-7,7-dimethyl-3,4,7,8-tetrahydro-2H-cyclopenta[4,5]pyrrolo[1,2-a]pyrazin-1(6H)-one], the figures for the IC50 (on BTK kinase; in experiment [1]) were 0.68 nM and 23 nM, respectively.
In the case of `Cn1cc(-c2ccnc(N3CCn4c5c(c(F)c4C3=O)CC(C)(C)C5)c2CO)cc(Nc2ccc(N3CCN(C4COC4)CC3)nc2)c1=O` [Example H16, 9-fluoro-2-(3′-(hydroxymethyl)-1-methyl-5-((6-(4-(oxetan-3-yl)piperazin-1-yl)pyridin-3-yl)amino)-6-oxo-1,6-dihydro-[3,4′-bipyridin]-2′-yl)-7,7-dimethyl-3,4,7,8-tetrahydro-2H-cyclopenta[4,5]pyrrolo[1,2-a]pyrazin-1(6H)-one], the IC50 was found to be 0.17 nM on BTK kinase and 47 nM in experiment [1].

For the origin of these results see patent publication US12606566B2, “Substituted cyclopenta[4,5]pyrrolo[1,2-a]pyrazines as bruton's tyrosine kinase inhibitors” (Shanghai Synergy Pharmaceutical Sciences Co., Ltd., priority 2020, dated 2026).
